Source: ChEMBL document CHEMBL2046434, “Morita-Baylis-Hillman adducts: biological activities and potentialities to the discovery of new cheaper drugs” (Bioorg Med Chem, 2012)
Each block holds one compound with its values, some of them ahead of it.

Legend:
[1] = tested on: HeLa; test: Growth inhibition of human HeLa cells at 5 uM; type: functional; conditions: read-out: GI
[2] = tested on: Leishmania amazonensis; test: Antileishmanial activity against Leishmania amazonensis promastigotes; type: functional, organism-based
[3] = tested on: Candida albicans; test: Antimicrobial activity against Candida albicans; type: functional
[4] = tested on: Aspergillus niger; test: Antimicrobial activity against Aspergillus niger; type: functional
[5] = tested on: Trypanosoma cruzi; test: Antitrypanosomal activity against Trypanosoma cruzi epimastigotes; type: functional, organism-based
[6] = tested on: Trypanosoma cruzi; test: Antitrypanosomal activity against Trypanosoma cruzi trypomastigotes; type: functional, organism-based

SMILES: Cc1ccc(S(=O)(=O)NC(/C(=C/c2ccoc2)[N+](=O)[O-])c2ccccc2)cc1 (stereo unspecified)
- inhibition of growth at 5 µM [1]: 28%

SMILES: Cc1ccc(S(=O)(=O)NC(/C(=C/c2ccoc2)[N+](=O)[O-])c2ccco2)cc1 (stereo unspecified)
- inhibition of growth at 5 µM [1]: 33%

SMILES: COc1ccc(/C=C(/C(NS(=O)(=O)c2ccc(C)cc2)c2ccccc2)[N+](=O)[O-])cc1 (stereo unspecified)
- inhibition of growth at 5 µM [1]: 23%

- IC50 [2]: 196 µM
SMILES: C=C(C(=O)OC)C(O)c1ccc([N+](=O)[O-])cc1 (stereo unspecified)
- zone of inhibition [3]: 13 mm

SMILES: C=C(C#N)C(O)c1ccccc1Cl (stereo unspecified)
- zone of inhibition [4]: 14 mm
- zone of inhibition [3]: 13 mm

SMILES: COc1ccc(/C=C(/CCC(C)=O)[N+](=O)[O-])cc1
- inhibition of growth at 5 µM [1]: > 70%

- IC50 [2]: 452 µM
SMILES: C=C(C(=O)OC)C(O)c1cccc([N+](=O)[O-])c1 (stereo unspecified)

SMILES: CC(=O)CC/C(=C/c1ccc(Cl)cc1)[N+](=O)[O-]
- inhibition of growth at 5 µM [1]: > 70%

- IC50 [5]: 28.5 µM
- IC50 [6]: 25.5 µM
SMILES: C=C(C#N)C(O)c1ccc([N+](=O)[O-])cc1 (stereo unspecified)
- zone of inhibition [4]: 12 mm
- zone of inhibition [3]: 12 mm

SMILES: C=C(C#N)C(O)c1ccccc1OC (stereo unspecified)
- zone of inhibition [4]: 12 mm

SMILES: C=C(C(=O)OCC)C(O)c1ccccc1OC (stereo unspecified)
- zone of inhibition [3]: 12 mm

SMILES: C=C(C(=O)OCC)C(O)c1ccc(Cl)cc1Cl (stereo unspecified)
- zone of inhibition [4]: 11 mm
- zone of inhibition [3]: 15 mm

SMILES: C=C(C#N)C(O)c1ccc(Cl)cc1 (stereo unspecified)
- zone of inhibition [4]: 12 mm
- zone of inhibition [3]: 13 mm

SMILES: Cc1ccc(S(=O)(=O)NC(/C(=C/c2ccsc2)[N+](=O)[O-])c2ccccc2)cc1 (stereo unspecified)
- inhibition of growth at 5 µM [1]: 45%

SMILES: COc1ccc(/C=C(/C(NS(=O)(=O)c2ccc(C)cc2)c2ccccc2)[N+](=O)[O-])cc1OC (stereo unspecified)
- inhibition of growth at 5 µM [1]: 35%

SMILES: C=C(C(=O)OCC)C(O)c1ccc(F)cc1 (stereo unspecified)
- zone of inhibition [4]: 14 mm
- zone of inhibition [3]: 15 mm

SMILES: C=C(C(=O)OCC)C(O)c1cccc([N+](=O)[O-])c1 (stereo unspecified)
- zone of inhibition [4]: 13 mm
- zone of inhibition [3]: 14 mm

SMILES: Cc1ccc(S(=O)(=O)NC(/C(=C/c2ccc3c(c2)OCO3)[N+](=O)[O-])c2ccccc2)cc1 (stereo unspecified)
- inhibition of growth at 5 µM [1]: 29%

SMILES: Cc1ccc(S(=O)(=O)NC(/C(=C/c2ccco2)[N+](=O)[O-])c2ccccc2)cc1 (stereo unspecified)
- inhibition of growth at 5 µM [1]: 44%

SMILES: C=C(C#N)C(O)c1ccc(F)cc1 (stereo unspecified)
- zone of inhibition [4]: 11 mm
- zone of inhibition [3]: 13 mm

SMILES: Cc1ccc(S(=O)(=O)NC(/C(=C/c2ccco2)[N+](=O)[O-])c2ccco2)cc1 (stereo unspecified)
- inhibition of growth at 5 µM [1]: 32%

SMILES: C=C(C(=O)OCC)C(O)c1ccccc1Cl (stereo unspecified)
- zone of inhibition [4]: 14 mm
- zone of inhibition [3]: 13 mm

SMILES: C=C(C#N)C(O)c1ccc(Cl)cc1Cl (stereo unspecified)
- zone of inhibition [4]: 13 mm
- zone of inhibition [3]: 11 mm

SMILES: C=C(C(=O)CC)C(O)c1ccc(Cl)cc1 (stereo unspecified)
- zone of inhibition [4]: 13 mm
- zone of inhibition [3]: 12 mm

- IC50 [2]: 50.1 µM
SMILES: C=C(C(=O)OC)C(O)c1ccccc1[N+](=O)[O-] (stereo unspecified)
- zone of inhibition [4]: 11 mm
- zone of inhibition [3]: 12 mm

SMILES: Cc1ccc(S(=O)(=O)NC(/C(=C/c2cccs2)[N+](=O)[O-])c2ccco2)cc1 (stereo unspecified)
- inhibition of growth at 5 µM [1]: 28%

SMILES: C=C(C#N)C(O)c1ccccc1[N+](=O)[O-] (stereo unspecified)
- zone of inhibition [4]: 11 mm
- zone of inhibition [3]: 13 mm

SMILES: C=C(C(=O)OCC)C(O)c1ccc(Cl)cc1 (stereo unspecified)
- zone of inhibition [4]: 11 mm
- zone of inhibition [3]: 12 mm

SMILES: CC(=O)CC/C(=C/c1ccccc1)[N+](=O)[O-]
- inhibition of growth at 5 µM [1]: > 70%

SMILES: C=C(C(=O)OCC)C(O)c1ccc([N+](=O)[O-])cc1 (stereo unspecified)
- zone of inhibition [4]: 12 mm
- zone of inhibition [3]: 11 mm

SMILES: Cc1ccc(S(=O)(=O)NC(/C(=C/c2cccs2)[N+](=O)[O-])c2ccccc2)cc1 (stereo unspecified)
- inhibition of growth at 5 µM [1]: 49%

SMILES: C=C(C#N)C(O)c1cccc([N+](=O)[O-])c1 (stereo unspecified)
- zone of inhibition [4]: 14 mm
- zone of inhibition [3]: 10 mm
